Experimental data as given in US20160178605A1, “Electrical Cell-substrate Impedance Sensor (ECIS)” (priority 2015, published 2016).

System: MCF-7 cells
Assay: SiNW-ECIS impedance and capacitance response of MCF-7 cells to antitubulin drugs
Type: cell-based, human
Settings: PTX 0.1 nano-moles per liter; for normalized capacitance change (ΔC %) vs control sample / normalized impedance change (ΔZ %) vs control sample: MCF-7, 2 hours (T1) after drug incubation; for normalized capacitance change (ΔC %) vs control sample / normalized impedance change (ΔZ %) vs control sample / change in norm of impedance of treated cells between T1 and T2 / norm of capacitive changes, control sample more than drug treated values: ABZ 2.1 nano-moles per liter; for normalized impedance change (ΔZ %) vs control sample: mean; for norm of capacitive changes, control sample more than drug treated values: MCF-7, 6 hours (T2) after drug incubation
Method: In this example, the diagnostic response of cells membrane to extremely low dose of antitubulin drugs is investigated. Initially, MCF-7 cell lines, isolated from grade I human breast tumors, were obtained from the National Cell Bank of Iran (Pasteur Institute). Then, cells were maintained in a CO2 incubator (37° C., 5% CO2) in RPMI-1640 medium supplemented with 5% fetal bovine serum, and 1% penicillin/streptomycin. The fresh medium was replaced every other day. Then, the cultured cells were dropped on the surface of the SiNW-ECIS, designed and fabricated pursuant to teachings of the present application. Prior to each experiment, cells were trypsinized to be detached from the substrate and resuspended on the SiNW surface. To minimize the effect of trypsinization, the procedure may last for less than 4 minutes at room temperature of about 20° C. The samples were held in an incubator for about 4 hours to achieve cells attachment on the SiNWs. Thereafter, the ABZ drug with low concentrations of about 2.1 nano-moles per liter and the PTX drug with low concentrations of about 0.1 nano-moles per liter were added to individual samples. Finally, the signal recording and biological assays were investigated about 2 hours and 6 hours after the drug treatment (6 hours and 10 hours after the beginning of culturing process).
Referring to FIGS. 12A-12G, comparative normalized diagrams of impedance (designated by ΔZ % and represented by solid black lines) and capacitance changes (designated by ΔC % and represented by dashed grey lines) are illustrated for MCF-7 cells seeded on SiNW electrodes after treating by 2.1 nano-moles per liter of ABZ and 0.1 nano-moles per liter of PTX. The time interval between the drug incubation and the signal extraction are 2 hours (designated by T1) and 6 hours (designated by T2). In addition, the same diagrams are plotted for control sample prepared with no drug treatment stage.
According to the method described in the present example, the samples were maintained in an incubator so that the signal extraction was repeated 10 hours after cells dropping (6 hours after drug incubation for treated samples) to monitor the time evolution of drug induced MT polymerization/depolymerization on bioelectrical response of the membrane.

[1] = MCF-7, 2 hours (T1) vs 6 hours (T2) after drug incubation

Row | Compound | normalized capacitance change (ΔC %) vs control sample | normalized impedance change (ΔZ %) vs control sample | change in norm of impedance of treated cells between T1 and T2 [1] | norm of capacitive changes, control sample more than drug treated values | time dependent variation in capacitive behavior between T1 and T2 [1]
1 | CCCSc1ccc2nc(NC(=O)OC)[nH]c2c1 [ABZ, Albendazole] | 70% | 25% | about 60% | about 90% | 
2 | CC(=O)O[C@H]1C(=O)[C@@]2(C)[C@H]([C@H](OC(=O)c3ccccc3)[C@]3(O)C[C@H](OC(=O)[C@H](O)[C@@H](NC(=O)c4ccccc4)c4ccccc4)C(C)=C1C3(C)C)[C@]1(OC(C)=O)CO[C@@H]1C[C@@H]2O [PTX, Paclitaxel] | about 60% | about 50% | 15% | ~75% | about 85%
